Results reported in PubChem BioAssay (NCI).
Where “and” joins values, the source holds several entries; their conditions need not be identical. Equal entries are not always repeated.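 48-hour exposure; five concentrations; linearly interpolated endpoints. At the GI50, growth is halved. TGI: total growth inhibition.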

Assays:
Assay in all cases: DTP human tumour cell line panel, 48 h
SK-MEL-28 melanoma = tested on: SK-MEL-28 melanoma
HCT-116 colon = tested on: HCT-116 colon
IGROV1 ovarian = tested on: IGROV1 ovarian
OVCAR-5 ovarian = tested on: OVCAR-5 ovarian
SK-OV-3 ovarian = tested on: SK-OV-3 ovarian
MDA-MB-435 = tested on: MDA-MB-435
PC-3 prostate = tested on: PC-3 prostate
SK-MEL-5 melanoma = tested on: SK-MEL-5 melanoma
RXF 393 renal = tested on: RXF 393 renal
MCF7 breast = tested on: MCF7 breast

SMILES	GI50 (SK-MEL-28 melanoma)	TGI (SK-MEL-28 melanoma) [µM]	GI50 (HCT-116 colon)	TGI (HCT-116 colon) [µM]	GI50 (IGROV1 ovarian) [µM]	TGI (IGROV1 ovarian) [µM]	GI50 (OVCAR-5 ovarian) [µM]	TGI (OVCAR-5 ovarian) [µM]	GI50 (SK-OV-3 ovarian)	TGI (SK-OV-3 ovarian) [µM]	GI50 (MDA-MB-435) [µM]	TGI (MDA-MB-435) [µM]	GI50 (PC-3 prostate) [µM]	TGI (PC-3 prostate) [µM]	GI50 (SK-MEL-5 melanoma) [µM]	TGI (SK-MEL-5 melanoma) [µM]	GI50 (RXF 393 renal) [µM]	TGI (RXF 393 renal) [µM]	TGI (MCF7 breast) [µM]	GI50 (MCF7 breast)
[Cl][Hg][c]1ccc(Cl)s1	1.42 µM	2.87	1.49 µM	2.97	1.62	3.67	1.72	3.29	13.6 µM	26.8	2.08	5.7	5.62	16.2	2.45	7.34	1.56	2.95	–	–
O=c1c2ccccc2nc(/C=C(\O)c2ccncc2)n1-c1ccc(Cl)cc1	–	> 100	–	> 100	–	–	–	> 100	–	> 100	–	–	–	–	–	> 100	–	–	–	–
COC(=O)c1ccccc1N1C(=O)Cc2ccccc2C1=O	–	> 100	–	–	–	> 100	–	> 100	–	> 100	–	–	–	–	–	> 100	–	> 100	–	–
CCOC(=O)Cc1csc(Nc2ccc(OCC)cc2)n1	–	> 100	–	> 100	–	> 100	–	–	–	–	–	–	–	–	–	–	–	> 100	–	–
CCCCC(C(=O)CCC(=O)Nc1ccc(Cl)c(Cl)c1)C(=O)C(C)C (stereo not drawn)	–	> 100	–	> 100	–	> 100	–	88.8	–	> 100	–	–	–	–	–	> 100	–	> 100	–	–
NC(N)=NC(N)=Nc1cnccn1	–	> 100	–	> 100	–	> 100	–	–	–	> 100	–	> 100	–	> 100	–	> 100	–	> 100	> 100	–
C(=N\Nc1ccccc1)/c1nc2ccccc2nc1/C=N/Nc1ccccc1	–	31.7	–	25.7	–	21.5	–	84.9	–	38.6	–	–	–	–	–	35.4	–	30.1	–	–
Nc1nc(Cl)cc(NCC(O)CO)n1 (stereo not drawn)	–	> 100	–	> 100	–	> 100	–	> 100	–	> 100	–	–	–	–	–	> 100	–	> 100	–	–
COc1cc(O)c2c(c1)O[C@@H]1OCC[C@H]21	–	> 100	–	> 100	–	> 100	–	> 100	–	> 100	–	–	–	–	–	> 100	–	–	–	–
CCC(O)C1Cc2c(C)cc3c(c2O1)C(=O)c1ccccc1C3=O (stereo not drawn)	–	> 100	–	> 100	–	> 100	–	> 100	–	89.4	–	–	–	–	–	> 100	–	–	–	–
COc1ccc(Sc2nc3cc(N)cc(N)c3nc2-c2ccccc2)cc1	24.4 µM	> 100	14.7 µM	> 100	–	–	> 100	> 100	32.9 µM	> 100	> 100	> 100	6.39	> 100	24	> 100	> 100	> 100	> 100	16.5 µM
O=C(c1ccccc1)C(c1ccccc1)C1(O)C(=O)Nc2ccc([N+](=O)[O-])cc21 (stereo not drawn)	–	> 100	–	> 100	–	> 100	–	> 100	–	79.7	–	–	–	–	–	57.7	–	> 100	–	–
Nc1nc(N)c(-c2ccccc2)c(C(=O)Nc2ccccc2)n1	–	> 100	–	> 100	–	> 100	–	> 100	–	> 100	–	–	–	–	–	> 100	–	> 100	–	–
CC1(Br)CC2OC3(Br)C=CC(C)(O)C2(CC1=O)C3(C)C (stereo not drawn)	–	> 100	–	> 100	–	> 100	–	> 100	–	> 100	–	–	–	–	–	> 100	–	–	–	–
CCOC(=O)C(N=C(c1ccccc1)c1ccccc1)N(C(=O)OC(C)(C)C)C(=O)OC(C)(C)C (stereo not drawn)	–	> 100	–	> 100	–	> 100	–	> 100	–	> 100	–	–	–	–	–	> 100	–	> 100	–	–
COc1ccc(Cc2c(=O)[nH]nc3ccccc23)cc1	–	> 100	–	> 100	–	> 100	–	> 100	–	> 100	–	–	–	–	–	> 100	–	–	–	–
N#Cc1c(N)n2c(nc1=Nc1ccc(Cl)cc1)sc1cc(Cl)ccc12	5.74 µM and 2.8 µM	> 100	6.12 µM	> 100	> 100	> 100	–	–	7.14 µM and 5.3 µM	> 100	6.18	> 100	4.65	–	8	–	–	–	> 100	1.83 µM

SMILES	GI50 (SK-MEL-28 melanoma)	TGI (SK-MEL-28 melanoma) [µM]	GI50 (HCT-116 colon)	TGI (HCT-116 colon) [µM]	GI50 (IGROV1 ovarian) [µM]	TGI (IGROV1 ovarian) [µM]	GI50 (OVCAR-5 ovarian) [µM]	TGI (OVCAR-5 ovarian) [µM]	GI50 (SK-OV-3 ovarian)	TGI (SK-OV-3 ovarian) [µM]	GI50 (MDA-MB-435) [µM]	TGI (MDA-MB-435) [µM]	GI50 (PC-3 prostate) [µM]	TGI (PC-3 prostate) [µM]	GI50 (SK-MEL-5 melanoma) [µM]	TGI (SK-MEL-5 melanoma) [µM]	GI50 (RXF 393 renal) [µM]	TGI (RXF 393 renal) [µM]	TGI (MCF7 breast) [µM]	GI50 (MCF7 breast)
Cc1cc(C)n(-c2ccnc3cc(Cl)ccc23)n1	–	> 100	–	> 100	–	> 100	–	> 100	–	> 100	–	–	–	–	–	> 100	–	> 100	–	–
CCCCNC(=O)C1C(=O)N(CCCC)C(=O)/C1=N\N (stereo not drawn)	–	> 100	–	> 100	–	> 100	–	> 100	–	> 100	–	–	–	–	–	> 100	–	> 100	–	–
COc1cc2c(c(OC)c1OC)-c1ccc(OC)c(=O)cc1[C@@H](NC(C)=O)CC2	–	> 625	< 0.01 µM and 0.0625 µM	–	–	> 100	> 578	> 625	–	–	–	< 0.01	–	> 100	–	–	–	–	–	< 0.01 µM and 0.00342 µM and < 0.0114 µM
COc1cccc(/C=N/NC(=O)c2ccccc2N2CCCC2)c1O	5.27 µM	> 100	3.3 µM	> 100	7.05	> 100	9.72	> 100	4.9 µM	90.6	18.3	> 100	6.48	> 100	5.3	24.4	44.4	> 100	–	–
O=[N+]([O-])c1cc([N+](=O)[O-])c(/C=C/c2ccc(Cl)c(Cl)c2)cc1/C=C/c1ccc(Cl)c(Cl)c1	–	59.2	–	–	–	66.8	–	> 100	–	> 100	–	–	–	–	–	35.7	–	37	–	–
CC[C@@]1(O)C(=O)OCc2c1cc1n(c2=O)Cc2cc3cccc([N+](=O)[O-])c3nc2-1	43.9 µM	> 100	1.58 µM	13.6	1.96	14.9	1.55	28.4	0.501 µM	17.1	–	–	–	–	1.18	2.74	1.83	7.18	–	–
O=C1[C@@H]2C(c3ccccc3[N+](=O)[O-])=[N+](c3ccccc3)O[C@@H]2C(=O)N1c1ccc(Cc2ccc(N3C(=O)[C@H]4C(c5ccccc5[N+](=O)[O-])=[N+](c5ccccc5)O[C@H]4C3=O)cc2)cc1	–	> 100	–	> 100	–	> 100	–	> 100	–	> 100	–	–	–	–	–	> 100	–	> 100	–	–
CONC(C)=O	–	> 100	–	> 100	–	> 100	–	> 100	–	> 100	–	> 100	–	> 100	–	> 100	–	–	> 100	–
COc1ccc2cc(C(=O)/C=C/c3ccc(N(C)C)cc3)ccc2c1	> 100 µM	> 100	> 100 µM	> 100	47.8	> 100	–	–	> 100 µM	> 100	93.1	> 100	> 100	> 100	36.9	72.8	41.4	> 100	> 100	83 µM
CCOC(=O)NC/C=C/COC1CCCCO1 (stereo not drawn)	–	> 100	–	> 100	–	> 100	–	–	–	> 100	–	–	–	–	–	> 100	–	> 100	–	–
N#CCCCCCOCCOCCOCCOCCOCCCCCC#N	–	> 100	–	> 100	–	> 100	–	> 100	–	> 100	–	–	–	–	–	> 100	–	> 100	–	–
Cc1nn2c(nc1=O)sc1ccc3ccccc3c12	–	> 100	–	> 100	–	> 100	–	> 100	–	> 100	–	–	–	–	–	> 100	–	> 100	–	–
CCCCCCCCCCCC(=O)N1CCN(C(C)=O)CC1	–	–	22.5 µM	63.4	18.8	42.5	21.2	48.5	20.7 µM	39.7	20.4	40.9	17.8	34.5	23.7	38.9	15.4	33.4	32.8	17.6 µM
Clc1ccc(Nc2ccnc(N3CCN(c4ccnc5cc(Cl)ccc45)CC3)n2)cc1	–	–	1.99 µM	6.38	3.82	> 100	–	–	3.28 µM	44.7	1.86	5.99	1.98	13.3	1.81	3.66	2.35	7.65	6.87	1.96 µM
CCCNCC(=O)O[C@]1(CC)C(=O)OCc2c1cc1n(c2=O)Cc2cc3ccccc3nc2-1	–	32.8	–	–	–	4.68	–	3.96	–	> 100	–	–	–	–	–	0.304	–	0.39	–	–
Cc1ccc(NC(=O)c2cc3ccccc3c(N=Nc3cc(S(=O)(=O)O)ccc3O)c2O)c(C)c1	–	> 100	–	> 100	–	> 100	–	89.2	–	> 100	–	> 100	–	> 100	–	> 100	–	63.6	–	–
